This is an account of results in patent publication US9415122B2, “Methods and compositions for the detection of cancer cells” (priority 2008, dated 2016).

Data set [1] relates to LN-229 flank tumors. The following applies: 0.1 mmol/kg i.v.
Excerpt: Cells were infected with lentivirus encoding green fluorescent protein (GFP), diluted in BD Matrigel Matrix (BD Biosciences, Franklin Lakes, N.J.), and injected into both flanks of female nude athymic mice (NCr-nu/+, NCr-nu/nu, 20-25 g each). Approximately 1.4×10^6 cells were implanted per flank. To correlate tumor position with GFP fluorescence, mice were imaged using the Maestro FLEX In Vivo Imaging System as previously described. Tumor area was approximately 0.5 cm^2, as measured from GFP fluorescence images acquired with the Maestro just before MRI.
The MRI study was performed using a Bruker Biospec 7-T MRI scanner (Bruker Corp, Billerica, Mass.) with a 72-mm diameter cylindrical radio frequency coil. Mice bearing LN-229 flank tumors were imaged at 2 to 5 weeks after tumor implant. […]
Image analysis was performed by using Bruker ParaVision 4.0 imaging software. Regions of interest were drawn over the whole tumor in the 2D imaging plane and average signal intensity was measured. Contrast-to-noise ratios (CNRs) in the tumor were calculated at each time point and averaged from different mice (n=3) using the following equation: CNR=(St−Sm)/(δn), where St and Sm denote the signal in tumor and adjacent thigh muscle and δn is the SD of noise estimated from the background air. The P values were calculated using a two-tailed Student's t test, assuming statistical significance at P<0.05. […]
Data set [2] relates to CNS-1-GFP intracranial tumors. The note with it: for Cy5 fluorescence intensity of main tumors and dispersed cell populations: CNS-1 tumors, i.v. probe, 90 min clearance, normalized to background and tumor volume; for labeling of tumor (Cy5 signal) in words: intracranial glioma tumors, i.v. administration (FIG. 4).
Description: (§1) Imaging experiments were performed at 10-11 days for CNS-1 and 4-8 weeks for LN-229, to allow for optimal tumor growth and cell dispersal in these two cell lines. […] Following a 90-min interval for clearance of unbound probe, the animals were sacrificed and the brains removed for whole-brain imaging using the MAESTRO FLEX In-Vivo Imaging System (Cambridge Research & Instrumentation, Inc. (CRi), Woburn, Mass.) Immediately after imaging, the brains were embedded in Tissue-Tek OCT compound (Sakura Finetek U.S.A., Inc. Torrance, Calif.), frozen in a dry ice/ethanol slurry and cryo-imaged.
Frozen brains were alternately sectioned and imaged using the previously described Case Cryo-Imaging System at a section thickness of 15 μm and a resolution of 11×11×15 μm. Brightfield and fluorescence images were acquired for each of the brains using a low light digital camera (Retiga Exi, QImaging Inc., Canada), an epi-illumination fluorescent light source (Lumen200 PRO, Prior Scientific' Rockland, Mass.) and fluorescence filters for GFP (Exciter: HQ470/40x, Dichroic: Q495LP, Emitter: HQ500LP) or Cy5 (Exciter: FF01-628/40-25, Dichroic: FF660-Di01−25×36, Emitter: FF01-692/40-25; Semrock, Rochester, N.Y.). Single GFP expressing cells were readily detected with this system. […] Eight brains implanted with CNS-1-GFP cells and six brains with LN-229-GFP cells were analyzed.
Briefly, the main tumor mass was segmented using a fast 3-D region growth algorithm with intensity and gradient-based inclusion/exclusion criteria. Individual slice images were manually edited if necessary. Dispersed cells and clusters were detected by thresholding a Gaussian high pass filter image, discounting the masked main tumor mass. […] Light scattering in tissue might appear as a false positive signal in Cy5 volumes, However, we processed Cy5 volumes with a next-image processing algorithm, and used attenuation and scattering parameters for brain tissue that were previously described. Similar parameters were applied for both SBK2-Cy5 and scrambled-Cy5 volumes. To find co-labeled cells/clusters we applied a logical AND operator between the dispersed cell and Cy5 volumes. The lower limit for the blood vessel detection algorithm was ˜30 μm diameter. 3-D volumes of tumor, dispersed cells, Cy5 labeled cells, and vasculature were rendered using Amira software (Visage Imaging Inc., San Diego, Calif.), with modifications developed expressly for cryo-image data. Pseudo-colors were chosen to give the best contrast between the different data volumes.
Data set [3] is described as follows: Mouse health after multiple doses of Cy5 probes. It counts as in vivo. The following applies: delivery of multiple doses.
Description: as §1
Data set [4] relates to LN-229-GFP intracranial tumors. Kind of data set: In vivo labeling of LN-229-GFP intracranial tumors with Cy5 probes, 3-D cryo-imaging. On the set-up: species or system mouse. The following applies: for Cy5 fluorescence of main tumors and dispersed cell populations: LN-229 tumors, i.v. probe, 90 min clearance. An excerpt:
Individual slice images were manually edited if necessary.
Total fluorescence signal was then normalized for tumor volume.

Data set [5] has as its system prostate tumors. Description: Labeling of prostate tumors with PTPμ probe (FIG. 3).
Data set [6] concerns LN-229-GFP flank tumors. Description: Histologic probe labeling of LN-229-GFP flank tumor tissue sections. It counts as binding, human. The following applies: probe 1 μM, 1 hour, room temperature. As to the method: Tumors were embedded in Tissue Freezing Medium (Electron Microscopy Sciences, Hatfield, Pa.) in a dry ice ethanol slurry and cryosectioned at 7-μm intervals.
For probe labeling, tissue sections were blocked with 2% goat serum in phosphate-buffered saline for 20 minutes at room temperature, then incubated with SBK2-Texas Red or scrambled Texas Red probes diluted to 1 μMin block buffer for 1 hour at room temperature in dark conditions. The sections were rinsed with phosphate-buffered saline, coverslipped with Citifluor Antifadent Mounting Medium (Electron Microscopy Sciences), and imaged immediately at ×20 magnification on a Leica DMI 6000 B inverted microscope (Leica Microsystems GmbH, Wetzlar, Germany) using a Retiga EXi camera (QImaging, Surrey, BC) and Metamorph software (MolecularDevices, Downington, Pa.). Images were acquired across the entire tissue using bright-field and fluorescence optics for fluorescein (GFP) and Texas Red (probe). The resultant images were tiled and flattened to form a single composite image using Metamorph software. A human specific Vimentin antibody (clone SP20; Thermo Fisher Scientific, Fremont, Calif.) was used to detect the implanted LN-229 tumor cells and imaged as above.

Where two headings read alike, the source gives them in different places. Where no end group is shown, it is not given here.

Consider `CC(O)CN1CCN(CC(=O)[O-])CCN(CC(=O)[O-])CCN(CC(=O)[O-])CC1.[Gd+3]` (centres unmarked) [ProHance, Gadoteridol, reference compound], for which, in data set [1], the “pattern of tumor enhancement on T1-weighted images / heat maps” value is on record as “enhanced contrast of the tumor edge compared with the tumor center”.
In the case of “SBK2-Cy5: SBK2 peptide (SEQ ID NO: 5) with additional N-terminal glycine conjugated to Cy5 NHS ester dye (Cy5-GEGDDFNWEQVNTLTKPTSD)”, in data set [2], the “Cy5 fluorescence intensity of main tumors and dispersed cell populations” value is 73.5+/−16.2; the “labeling of tumor (Cy5 signal) in words” value is given as “brightly labeled”. In addition, the blood-brain barrier crossing entry in data set [2] (mouse, in vivo, iv) is given as “crosses the blood-brain barrier”. In addition, in data set [3], the “effects on mouse health” value was “did not result in deleterious effects”. Also, in data set [4] (LN-229-GFP intracranial tumors), the “dispersed cell population labeled” value was “greater than 99%” and the “labeling of main GFP-positive tumor in words” value is on record as “bright Cy5 fluorescence signal”. The “Cy5 fluorescence of main tumors and dispersed cell populations” value in data set [4] is listed as 114.7+/−25.9.
On to “SBK2-Texas Red: SBK2 peptide probe labeled with Texas Red (EGDDFNWEQVNTLTKPTSD; not fully specified (N-terminus); also: labeled with Texas Red, site not given here)”, for which the “recognition of prostate tumors” value in data set [5] was “recognized”. For the same compound, the “labeling of flank tumor sections” value in data set [6] is reported as “labeled the entire tumor with greatest intensity in the tumor center”.
For the compound “scrambled Texas Red: scrambled peptide probe labeled with Texas Red (GFTQPETGTDNDLWSVDNEK; not fully specified (N-terminus); also: labeled with Texas Red, site not given here) [reference compound]”, in data set [6], the “labeling of flank tumor sections” value is recorded as “did not label the tumor”.
Turning to “scrambled Tris-(Gd-DOTA)3: scrambled SBK2 peptide (SEQ ID NO: 10) linked to Gd-DOTA; nontargeted control agent (CGFTQPETGTDNDLWSVDNEK; numbers in words are those of the source; also: Tris-(Gd-DOTA)3 conjugate, attachment site not given here) [reference compound]”, the “pattern of tumor enhancement on T1-weighted images / heat maps” value in data set [1] is recorded as “enhanced contrast of the tumor edge compared with the tumor center”.
Consider “scrambled-Cy5: scrambled sequence of the SBK2 peptide (SEQ ID NO: 10) conjugated to Cy5 dye; control probe (GFTQPETGTDNDLWSVDNEK; also: Cy5 dye conjugate, attachment site not given here) [reference compound]”, for which, in data set [2], the “Cy5 fluorescence intensity of main tumors and dispersed cell populations” value is on record as 7.2+/−2.3; the “labeling of tumor (Cy5 signal) in words” value was “did not label tumors”. In addition, the “labeling of tumor (Cy5 signal) in words” value in data set [2] (listed as scrambled probe) was “no significant signal above background”. Besides, the “effects on mouse health” value in data set [3] was “did not result in deleterious effects”. Further, the “Cy5 fluorescence of main tumors and dispersed cell populations” value in data set [4] came to 5.8.
